From patent US20070128179A1 (priority 2005, published 2007)
Converted amounts (≈) assume the structure as drawn. Where two headings read alike, the source gives them in different places. No end group written: not given here.

Tests used:
[1] = system: B. pseudomallei (strain TES); assay: microbe, parasite or virus in culture; type: cell-based, Burkholderia pseudomallei; conditions: 24 h; for MIC: Burkholderia pseudomallei, read-out: MIC (breaking point)
[2] = system: severe meloidosis patients; conditions: human, in vivo; cited from earlier work
[3] = system: B. pseudomallei (strain KHW); assay: microbe, parasite or virus in culture; conditions: Burkholderia pseudomallei, 24 h, read-out: MIC (breaking point)
THP-1 cells = type: cell-based, Human
[4] = system: B. pseudomallei (strain KHW); conditions: 24 h
Staphylococcus aureus = type: cell-based
Proteus vulgaris = type: cell-based
Enterobacter aerogenes = type: cell-based
Escherichia coli = type: cell-based
Proteus mirabilis = type: cell-based
Pseudomonas aeruginosa = type: cell-based
[5] = system: THP-1 cells (Human macrophage)
Burkholderia cepacia = conditions: 50 μg/mL; cited from earlier work
23 tested strains = conditions: cited from earlier work

CC(C)(O/N=C(\C(=O)N[C@@H]1C(=O)N2C(C(=O)[O-])=C(C[n+]3ccccc3)CS[C@H]12)c1csc(N)n1)C(=O)O [Ceftazidime]
optical density (560 nm) of bacterial growth, strain TES ([1]; 0.03125 mg/mL): 0.49 | percentage in parentheses (susceptibility), strain TES ([1]; 0.03125 mg/mL): (33%) | optical density (560 nm) of bacterial growth, strain TES ([1]; 0.0625 mg/mL): 0.35 | percentage in parentheses (susceptibility), strain TES ([1]; 0.0625 mg/mL): (47%) | optical density (560 nm) of bacterial growth, strain TES ([1]; 0.125 mg/mL): 0.09 | optical density (560 nm) of bacterial growth, strain TES ([1]; 0.25 mg/mL): 0.03 | percentage in parentheses (susceptibility), strain TES ([1]; 0.25 mg/mL): (86%) | optical density (560 nm) of bacterial growth, strain TES ([1]; 0.5 mg/mL): 0.01 | percentage in parentheses (susceptibility), strain TES ([1]; 0.5 mg/mL): (88%) | MIC [1]: 125 µg/mL (≈ 229 µM) | mortality [2]: 37% | MIC [3]: 125 µg/mL (≈ 229 µM) | gene expression (THP-1 cells): majority of the genes were up regulated | optical density (560 nm) of bacterial growth, strain KHW ([4]; 0.03125 mg/mL): 0.44 | percentage in parentheses (susceptibility), strain KHW ([4]; 0.03125 mg/mL): (22%) | optical density (560 nm) of bacterial growth, strain KHW ([4]; 0.0625 mg/mL): 0.24 | percentage in parentheses (susceptibility), strain KHW ([4]; 0.0625 mg/mL): (24%) | optical density (560 nm) of bacterial growth, strain KHW ([4]; 0.125 mg/mL): 0.04 | percentage in parentheses (susceptibility), strain KHW ([4]; 0.125 mg/mL): (62%) | optical density (560 nm) of bacterial growth, strain KHW ([4]; 0.25 mg/mL): 0.05 | percentage in parentheses (susceptibility), strain KHW ([4]; 0.25 mg/mL): (61%) | optical density (560 nm) of bacterial growth, strain KHW ([4]; 0.5 mg/mL): 0.08 | percentage in parentheses (susceptibility), strain KHW ([4]; 0.5 mg/mL): (58%)

O=C(N[C@H](CO)[C@H](O)c1ccc([N+](=O)[O-])cc1)C(Cl)Cl [Chloramphenicol]
optical density (560 nm) of bacterial growth, strain TES ([1]; 0.03125 mg/mL): 0.37 | percentage in parentheses (susceptibility), strain TES ([1]; 0.03125 mg/mL): (38%) | optical density (560 nm) of bacterial growth, strain TES ([1]; 0.0625 mg/mL): 0.34 | percentage in parentheses (susceptibility), strain TES ([1]; 0.0625 mg/mL): (41%) | optical density (560 nm) of bacterial growth, strain TES ([1]; 0.125 mg/mL): 0.07 | optical density (560 nm) of bacterial growth, strain TES ([1]; 0.25 mg/mL): 0.04 | percentage in parentheses (susceptibility), strain TES ([1]; 0.25 mg/mL): (73%) | optical density (560 nm) of bacterial growth, strain TES ([1]; 0.5 mg/mL): 0.026 | percentage in parentheses (susceptibility), strain TES ([1]; 0.5 mg/mL): (74%) | MIC [1]: 125 µg/mL (≈ 387 µM) | mortality [2]: 74% | Size of inhibition zone, Sa (+) (Staphylococcus aureus): 35.1 ± 1.26 mm | Size of inhibition zone, Pv (−) (Proteus vulgaris): 24.6 ± 0.86 mm | Size of inhibition zone, Ea (−) (Enterobacter aerogenes): 27.8 ± 1.09 mm | Size of inhibition zone, Ec (−) (Escherichia coli): 31.8 ± 1.64 mm | MIC [3]: 125 µg/mL (≈ 387 µM) | Size of inhibition zone, Pm (−) (Proteus mirabilis): 33 ± 2.34 mm | optical density (560 nm) of bacterial growth, strain KHW ([4]; 0.03125 mg/mL): 0.51 | percentage in parentheses (susceptibility), strain KHW ([4]; 0.03125 mg/mL): (1%) | optical density (560 nm) of bacterial growth, strain KHW ([4]; 0.0625 mg/mL): 0.42 | percentage in parentheses (susceptibility), strain KHW ([4]; 0.0625 mg/mL): (10%) | optical density (560 nm) of bacterial growth, strain KHW ([4]; 0.125 mg/mL): 0.07 | percentage in parentheses (susceptibility), strain KHW ([4]; 0.125 mg/mL): (60%) | optical density (560 nm) of bacterial growth, strain KHW ([4]; 0.25 mg/mL): 0.03 | percentage in parentheses (susceptibility), strain KHW ([4]; 0.25 mg/mL): (64%) | optical density (560 nm) of bacterial growth, strain KHW ([4]; 0.5 mg/mL): 0.01 | percentage in parentheses (susceptibility), strain KHW ([4]; 0.5 mg/mL): (68%) | Size of inhibition zone, Pa (−) (Pseudomonas aeruginosa): 25 ± 0.70 mm

[H]/N=C(/N)N[C@H]1[C@H](O)[C@@H](O)[C@H](O[C@@H]2O[C@@H](C)[C@](O)(C=O)[C@H]2O[C@@H]2O[C@@H](CO)[C@H](O)[C@@H](O)[C@@H]2NC)[C@@H](N/C(N)=N\[H])[C@@H]1O [Streptomycin]
Size of inhibition zone, Sa (+) (Staphylococcus aureus): 30.3 ± 0.77 mm | Size of inhibition zone, Pv (−) (Proteus vulgaris): 18.2 ± 0.83 mm | Size of inhibition zone, Ea (−) (Enterobacter aerogenes): 15.7 ± 0.44 mm | Size of inhibition zone, Ec (−) (Escherichia coli): 29.4 ± 0.89 mm | Size of inhibition zone, Pm (−) (Proteus mirabilis): 27.8 ± 1.09 mm | Size of inhibition zone, Pa (−) (Pseudomonas aeruginosa): 16.5 ± 0.50 mm

CC[C@H](C)[C@H](NC(=O)CN)C(=O)NCC(=O)N[C@@H](C)C(=O)N[C@H](C(=O)N[C@@H](CC(C)C)C(=O)N[C@@H](CCCCN)C(=O)N[C@H](C(=O)N[C@@H](CC(C)C)C(=O)N[C@H](C(=O)N[C@H](C(=O)NCC(=O)N[C@@H](CC(C)C)C(=O)N1CCC[C@H]1C(=O)N[C@@H](C)C(=O)N[C@@H](CC(C)C)C(=O)N[C@H](C(=O)N[C@@H](CO)C(=O)N[C@@H](Cc1c[nH]c2ccccc12)C(=O)N[C@H](C(=O)N[C@@H](CCCCN)C(=O)N[C@@H](CCCNC(=N)N)C(=O)N[C@@H](CCCCN)C(=O)N[C@@H](CCCNC(=N)N)C(=O)N[C@@H](CCC(N)=O)C(=O)N[C@@H](CCC(N)=O)C(N)=O)[C@@H](C)CC)[C@@H](C)CC)[C@@H](C)O)[C@@H](C)O)C(C)C)C(C)C [melittin]
MIC (breaking point) [4]: 250 µg/mL (≈ 87.8 µM)

Penicillin
Size of inhibition zone, Sa (+) (Staphylococcus aureus): 17.4 ± 0.89 mm | Size of inhibition zone, Pv (−) (Proteus vulgaris): 16.7 ± 0.98 mm | Size of inhibition zone, Ea (−) (Enterobacter aerogenes): 18.3 ± 0.85 mm | Size of inhibition zone, Ec (−) (Escherichia coli): 15.2 ± 0.84 mm | Size of inhibition zone, Pm (−) (Proteus mirabilis): 27.8 ± 1.10 mm | Size of inhibition zone, Pa (−) (Pseudomonas aeruginosa): 16.6 ± 0.89 mm

Triton X-100
cell death [5]: 90% | hemolytic activity (human red blood cells): 100%

hBD-3 (GIINTLQKYYCRVRGGRCAVLSCLPKEEQIGKCSTRGRKCCRRKK; ends and bridges not checked; cysteine pairing not given here; UniProt P81534 23-67, looked up)
effect (Burkholderia cepacia): did not show any effect | MBCs (23 tested strains): > 100 µg/mL
